A word on the pKa: it is the pH at which an ionisable group is half protonated.

Data set [1] is described as follows: Dissolving capacity (HAP or FAP dissolving and CaF2 dissolving). Type of data set: physicochemical. As to conditions: 1M aqueous solution of the acid containing 23% sodium fluoride, pH 4 with sodium hydroxide; diluted to 30 wt. %, stirred 24 hours with HAP, FAP, CaF2 powder. The procedure:
Dissolving capacity was measured in the following manner. Described specifically, the preparation is diluted to 30 wt. % with deionized water. The phosphorus and calcium concentrations in the solution were each determined in advance by using a calorimetric reagent and they were subtracted later. To 100 ml of the diluted solution were added hydroxyapatite (HAP), fluorapatite (FAP) and CAF2, each in the powdery form. The resulting mixture was stirred for 24 hours by a magnetic stirrer and the reaction mixture was filtered to remove the solid matter. The phosphorus and calcium concentrations in the solution were determined by a calorimetric reagent.
As the calorimetric reagents for calcium and phosphorus, Calcium Test Wako (for determination of calcium, product of Wako Pure Chemicals) and P Test Wako (for determination of inorganic phosphorus, product of Wako Pure Chemicals) were employed, respectively.

In data set [2] the test system is cow tooth (having a mirror polished surface). Briefly: Whitening effect on immersed cow tooth, judged from photographs by a panel of 20 experts. Particulars: 1M aqueous solution of the acid containing 23% sodium fluoride, pH 4; cow tooth immersed 24 hours. The procedure: Using acids different in pKa, 1M aqueous solutions containing 23% sodium fluoride were prepared, followed by adjustment to pH 4 with sodium hydroxide. After measuring their dissolving capacity, a cow tooth (having a mirror polished surface), which had been photographed in advance, was immersed in each solution for 24 hours. After the treatment, the tooth was taken out from the solution and photographed again. The color of the tooth before immersion was compared with that after immersion. The comparison was made as follows: A panel of 20 experts was asked to see the photographs of the tooth before and after treatment and to evaluate it as ◯ when the teeth was whitened after the treatment, while as × when no change in color was recognized. Upon evaluation, the tooth which was whitened but lost its gloss was evaluated as ×. The preparation evaluated as ◯ by at least a half of the experts was judged effective and the others were judged ineffective.
Toothpastes as shown in Table 3 were prepared in a conventional manner. Dissolving capacity of each of their 30% aqueous solutions was measured as in Example 1. Their whitening effect was measured also as in Example 1 (by immersing in the toothpaste for 24 hours).

For data set [3] the following is noted: 25° C.; acid added; cited from earlier work.

In the case of `CC(=O)O` [Acetic acid], the Dissolving capacity result in data set [1] is recorded as “∘”. Besides, the Whitening effect result in data set [2] was “∘”.

`O=C(O)CC(O)(CC(=O)O)C(=O)O` [Citric acid]: the pKa in data set [3] is 2.9. Also, in data set [1], the Dissolving capacity entry is “∘”. Moreover, the Whitening effect entry in data set [2] is “∘”.

Regarding `Cl` [Hydrochloric acid, reference compound], in data set [1], the Dissolving capacity entry is reported as “∘”.

Regarding `CC(O)C(=O)O` (centres unmarked) [Lactic acid], in data set [1], the Dissolving capacity entry is “∘”. Further, the Whitening effect entry in data set [2] was “∘”.

With `O=C(O)CC(O)C(=O)O` (centres unmarked) [Malic acid], the Dissolving capacity entry in data set [1] was “∘”. Besides, the Whitening effect result in data set [2] is reported as “∘”.

In the case of `O=P(O)(O)O` [Phosphoric acid, reference compound], the Dissolving capacity result in data set [1] is given as “∘”.

Regarding `O=S(=O)(O)O` [Sulfuric acid, reference compound], the Dissolving capacity entry in data set [1] was “∘”.

As to `O=C(O)C(O)C(O)C(=O)O` (centres unmarked) [Tartaric acid], in data set [3], the pKa was 2.99. The Whitening effect entry in data set [2] is recorded as “∘”.

The values are drawn from patent US20030124068A1, “Oral preparation” (priority 2000, published 2003).
